{"source": "paper PMC8515052", "about": "“PepVAE: Variational Autoencoder Framework for Antimicrobial Peptide Generation and Activity Prediction” (Frontiers in Microbiology, 2021)", "origin": "cited, not measured here", "tested_on": "Acinetobacter baumannii", "details": "murine model of infection; ref Stokes et al., 2020", "excerpt": "Many pathogenic bacteria are resistant to the majority of, if not all, antibiotics that are currently being isolated using traditional methods. Because of this, generation of new antimicrobials is critical for survival in the post-antibiotic era ([Brown and Wright, 2016]). At the current rate, annual global death due to antibiotic resistance is projected to exceed 10 million by 2050, costing 100 trillion USD ([O’Neill, 2014]); however, investment has not kept up with the task with very few antibiotics currently in clinical development and far fewer likely to be approved for treatment of patien ..."}
{"smiles": "Nc1nnc(Sc2ncc([N+](=O)[O-])s2)s1", "note": "[halicin]", "values": [{"measurement": "activity against Acinetobacter baumannii", "value": "displays activity"}]}
